Laboratory results reported in PMC7013532, “Scenarios of Genes-to-Terpenoids Network Led to the Identification of a Novel α/β-Farnesene/β-Ocimene Synthase in Camellia sinensis” (International Journal of Molecular Sciences, 2020).

Biological target: TPS2 (Camellia sinensis, UniProt A0A3G3IRF8)
Assay: SPME GC-MS product analysis
Assay type: biochemical
Conditions: pH 7.5, 50 mM Tris-HCl, 10 mM MgCl2, 5 mM DTT, 30 °C

TPS2, sequence (A0A3G3IRF8 entry or part of it): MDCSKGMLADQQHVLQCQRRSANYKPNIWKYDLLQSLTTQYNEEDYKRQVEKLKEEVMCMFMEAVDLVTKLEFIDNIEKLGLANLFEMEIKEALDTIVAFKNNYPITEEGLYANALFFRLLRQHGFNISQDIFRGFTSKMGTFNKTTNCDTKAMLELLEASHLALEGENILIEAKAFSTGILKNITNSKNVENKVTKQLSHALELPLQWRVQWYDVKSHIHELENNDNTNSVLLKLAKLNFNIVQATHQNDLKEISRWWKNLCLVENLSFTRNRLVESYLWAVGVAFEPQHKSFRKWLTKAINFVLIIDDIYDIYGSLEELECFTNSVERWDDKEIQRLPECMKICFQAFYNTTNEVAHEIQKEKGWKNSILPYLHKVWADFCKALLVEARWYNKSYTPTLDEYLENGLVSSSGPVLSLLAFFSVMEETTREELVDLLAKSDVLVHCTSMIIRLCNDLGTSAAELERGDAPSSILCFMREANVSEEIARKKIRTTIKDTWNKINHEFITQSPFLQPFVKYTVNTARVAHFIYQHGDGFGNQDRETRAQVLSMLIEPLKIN

| SMILES | SPME GC-MS product analysis (product beta-ocimene) | SPME GC-MS product analysis (products beta-farnesene (main) and alpha-farnesene) |
| --- | --- | --- |
| CC(C)=CCC/C(C)=C/COP(=O)(O)OP(=O)(O)O [GPP] | β-ocimene is the resulting product when using GPP is used as the substrate | – |
| CC(C)=CCC/C(C)=C/CC/C(C)=C/COP(=O)(O)OP(=O)(O)O [FPP] | – | The main product produced by TPS2 using FPP as a substrate was β-farnesene |
